According to US5965718A, “Analogs of sarcodictyin and eleutherobin” (priority 1998, dated 1999):
“Also recorded” adds a separate entry of the source.

Key:
tubulin = assay: induction of tubulin polymerization, filtration calorimetric assay; type: biochemical; details: 100 m compound at 37° C.; in words, compared with sarcodictyins A (7) and B (8); figures only in FIG. 20
Procedure: (§1) FIG. 21 tabulates cytotoxicity data of sarcodictyins with the following tubulin polymerization and cytotoxicity properties of sarcodictyins: (a) The tubulin polymerization measurements were performed at 37° C. except for adjustments in drug concentration ([…]) and incubation time (90 min). (b) The cytotoxicity experiments were carried out as previously described (Giannakakou et al. J. Biol. Chem. 1995, 272, 17118-17125; Nicolaou et al. Angew. Chem. Int. Ed. Engl. 1997, 36, 2097-2103).
(§2) The synthesized sarcodictyin library (shown in FIG. 20) was screened for induction of tubulin polymerization using the filtration calorimetric assay and […] at 37° C. (results are listed in FIG. 20; Bollag et al. Cancer Res. 1995, 55, 2325-2333). These investigations were then followed by cytotoxicity studies with ovarian cancer cells (1A9) including two taxol-resistant lines (1A9PTX10 and 1A9PTX22; Giannakakou et al. J. Biol. Chem. 1995, 272, 17118-17125). The data reveal a number of important structure activity relationships (SARs).

[1] = tested on: ovarian cancer cells (1A9); type: cell-based; details: 1A9 and taxol-resistant lines; in words, compared with natural substances 7 and 8; figures only in FIG. 21
Procedure: as §1, §2

[2] = tested on: tubulin; ovarian cancer cells (1A9, 1A9PTX10, 1A9PTX22); details: in words; for biological activity (tubulin polymerization and/or cytotoxicity), SAR statement: compared with natural products 7 and 8; for biological activity on modification of the alcohol component of the ester group: compared with the methyl ester (compound 600)
Procedure: as §1, §2

[3] = tested on: taxol-resistant lines (1A9PTX10 and 1A9PTX22); assay: cytotoxicity against taxol-resistant tumor cell lines; type: cell-based; details: in words
Procedure: as §1, §2

SMILES | tubulin polymerization properties / potencies (tubulin) | cytotoxicity potency [1] | biological activity (tubulin polymerization and/or cytotoxicity), SAR statement [2] | cytotoxicity / biological activity against the taxol-resistant cell lines [3] | biological activity on modification of the alcohol component of the ester group [2]
CO[C@]12C=C[C@](C)(O1)[C@@H](OC(=O)/C=C/c1cn(C)cn1)C[C@H]1C(C)=CC[C@H](C(C)C)[C@H]1/C=C\2C(=O)OCCCCc1ccccc1 [Compound 660] | modest | cytotoxicity comparable to, or better than, the natural products |  |  | 
CCCOC(=O)/C1=C/[C@@H]2[C@@H](C(C)C)CC=C(C)[C@@H]2C[C@H](OC(=O)/C=C/c2cn(C)cn2)[C@]2(C)C=C[C@@]1(OCC(F)(F)F)O2 [Compound 840] |  | overall decrease of cytotoxicity |  |  | 
CO[C@]12C=C[C@](C)(O1)[C@@H](OC(=O)/C=C/c1cn(C)cn1)C[C@H]1C(C)=CC[C@H](C(C)C)[C@H]1/C=C\2C(=O)OCc1c2ccccc2cc2ccccc12 [Compound 920] | modest |  | equal or superior biological activities | Particularly striking | 
CCCCOC(=O)/C1=C/[C@@H]2[C@@H](C(C)C)CC=C(C)[C@@H]2C[C@H](OC(=O)/C=C/c2cn(C)cn2)[C@]2(C)C=C[C@@]1(OC)O2 [Compound 670] |  |  |  | Particularly striking | 
CO[C@]12C=C[C@](C)(O1)[C@@H](OC(=O)/C=C/c1cn(C)cn1)C[C@H]1C(C)=CC[C@H](C(C)C)[C@H]1/C=C\2C(=O)OCCC(C)C [Compound 710] |  |  |  |  | reversal of the trend
CCO[C@]12C=C[C@](C)(O1)[C@@H](OC(=O)/C=C/c1cn(C)cn1)C[C@H]1C(C)=CC[C@H](C(C)C)[C@H]1/C=C\2C(=O)OC [Compound 850] | superior tubulin polymerization properties to those of either sarcodictyins A (7) or B (8) | potencies comparable or higher that those of the natural substances | equal or superior biological activities | Particularly striking | 
COC(=O)/C1=C/[C@@H]2[C@@H](C(C)C)CC=C(C)[C@@H]2C[C@H](OC(C)=O)[C@]2(C)C=C[C@@]1(OC)O2 [Compound 1070] |  |  | complete loss of activity |  | 
C=CCOC(=O)/C1=C/[C@@H]2[C@@H](C(C)C)CC=C(C)[C@@H]2C[C@H](OC(=O)/C=C/c2cn(C)cn2)[C@]2(C)C=C[C@@]1(OC)O2 [Compound 700] | not always in line with their cytotoxicity effects |  |  |  | enhancement of the biological activity
COC(=O)/C1=C/[C@@H]2[C@@H](C(C)C)CC=C(C)[C@@H]2C[C@H](OC(=O)Nc2ccccc2)[C@]2(C)C=C[C@@]1(OC)O2 [Compound 1010] |  |  | complete loss of activity |  | 
CO[C@]12C=C[C@](C)(O1)[C@@H](OC(=O)/C=C/c1cn(C)cn1)C[C@H]1C(C)=CC[C@H](C(C)C)[C@H]1/C=C\2C(=O)OCCOCc1ccccc1 [Compound 690] | modest | cytotoxicity comparable to, or better than, the natural products |  |  | 
COC(=O)/C1=C/[C@@H]2[C@@H](C(C)C)CC=C(C)[C@@H]2C[C@H](OC(=O)/C=C/c2ccccn2)[C@]2(C)C=C[C@@]1(OC)O2 [Compound 480] |  |  | considerable loss of activity |  | 
CO[C@]12C=C[C@](C)(O1)[C@@H](OC(=O)/C=C/c1cn(C)cn1)C[C@H]1C(C)=CC[C@H](C(C)C)[C@H]1/C=C\2C(=O)OCCCl [Compound 630] |  | potencies comparable or higher that those of the natural substances | equal or superior biological activities |  | reversal of the trend
CO[C@]12C=C[C@](C)(O1)[C@@H](OC(=O)/C=C/c1cn(C)cn1)C[C@H]1C(C)=CC[C@H](C(C)C)[C@H]1/C=C\2CO[C@@H]1OC[C@@H](O)[C@@H](O)[C@@H]1OC(C)=O [eleutherobin] |  |  | potent biological actions |  | 
CCCOC(=O)/C1=C/[C@@H]2[C@@H](C(C)C)CC=C(C)[C@@H]2C[C@H](OC(=O)/C=C/c2cn(C)cn2)[C@]2(C)C=C[C@@]1(OC)O2 [Compound 680] |  |  |  | Particularly striking | enhancement of the biological activity
COC(=O)/C1=C/[C@@H]2[C@@H](C(C)C)CC=C(C)[C@@H]2C[C@H](OC(=O)/C=C/c2csc(C)n2)[C@]2(C)C=C[C@@]1(OC)O2 [Compound 490] |  |  | considerable loss of activity |  | 
CCOC(=O)C1=CC2C(CC(OC(=O)/C=C/c3cn(C)cn3)C3(C)C=CC1(OC)O3)C(C)=CCC2C(C)C (stereo not drawn) [Compound 610] | not always in line with their cytotoxicity effects | potencies comparable or higher that those of the natural substances | equal or superior biological activities | Particularly striking; also recorded: enhanced biological activity | enhancement of the biological activity
COC(=O)C1=CC2C(CC(OC(=O)/C=C/c3cn(C)cn3)C3(C)C=CC1(OC)O3)C(C)=CCC2C(C)C (stereo not drawn) [Compound 600] | superior tubulin polymerization properties to those of either sarcodictyins A (7) or B (8) | potencies comparable or higher that those of the natural substances | equal or superior biological activities | Particularly striking; also recorded: enhanced biological activity | 
CCOC(=O)/C1=C/[C@@H]2[C@@H](C(C)C)CC=C(C)[C@@H]2C[C@H](OC(=O)/C=C/c2coc(C)n2)[C@]2(C)C=C[C@@]1(OC)O2 [Compound 500] |  |  | considerable loss of activity |  | 
COC(=O)/C1=C/[C@@H]2[C@@H](C(C)C)CC=C(C)[C@@H]2C[C@H](OC(=O)/C=C/c2ccccc2)[C@]2(C)C=C[C@@]1(OC)O2 [Compound 990] |  |  | only negligible biological activity |  | 
COC(OC)/C1=C/[C@@H]2[C@@H](C(C)C)CC=C(C)[C@@H]2C[C@H](OC(=O)/C=C/c2cn(C)cn2)[C@]2(C)C=C[C@@]1(OC)O2 [Compound 730] |  | potencies comparable or higher that those of the natural substances |  | Particularly striking | 
